The record followed here is paper PMC12127288, “Engineering of antimicrobial peptide Brevinin-1pl: arginine, lysine, and histidine substitutions enhance antimicrobial-anticancer efficacy with reduced cytotoxicity” (Frontiers in Chemistry, 2025).

SMILES strings stand for the structures. Converted amounts (≈) assume the structure as drawn. Positions of bridges follow the written chain, without caps; N, C: chain ends. Residues, ends and D or L forms follow the SMILES beside them.

In one data set the test system is HaCaT cells. Type of data set: cell-based, human. Here is the method:
Lung cancer cell line, H838 (ATCC, United States), breast cancer cell line, MCF7 (ATCC, United States), and human immortalized keratinocytes, HaCat (Caltag Medsystems, United Kingdom), were used in this experiment to test the anti-proliferation activity of peptides brevine-1pl and its four analogues. H838 cells were maintained in RPMI-1640 medium (Gibco, United Kingdom), whereas MCF-7 and HaCaT cells were cultured in DMEM medium (Gibco, United Kingdom), supplemented with 10% (v/v) fetal bovine serum (FBS, Gibco, United Kingdom) and 1% (v/v) penicillin-streptomycin (PS, Gibco, United Kingdom). Cells were seeded in 96-well plates at densities of 8,000 cells/well for H838 and MCF-7 and 10,000 cells/well for HaCaT, followed by overnight incubation at 37°C under 5% CO2 to allow adherence. Following attachment, cells were exposed to peptide solutions at final concentrations ranging from 10^–4 M to 10^–9 M. After 22 h of treatment, 0.5 mg/ml MTT solution was added to each well and incubated at 37°C for 4 h. The medium was then aspirated, and 100 μl of DMSO was added to solubilize formazan crystals. Plates were agitated for 15 min in a shaking incubator, and absorbance was measured at 570 nm using a Synergy HT microplate reader. […] Cell viability (%) was calculated using the formula: Viability (%) = (ODtreated − ODblank)/(ODcontrol− ODblank) *100. […]

The next data set has as its system horse erythrocytes. Type of data set: cell-based. Here is the method: The hemolytic activity of the peptides was assessed using horse erythrocytes. Horse erythrocytes were selected due to their similarity to human erythrocytes in membrane composition and widespread use in AMP studies for standardization. Following a previously established protocol ([Gao et al., 2016]). Peptide solutions with final concentrations ranging from 1 µM to 128 µM were incubated with 2% horse erythrocytes at 37°C for 2 h. Triton X-100 (1%) served as the positive control, while sterile PBS was used as the blank control. After that, the peptide-horse erythrocytes mixture was centrifuged at 930 g for 10 min, and the absorbance at 570 nm of the supernatant was measured. The hemolysis rate was calculated using the formal: Percentage Hemolysis = (Absorbance of sample − Absorbance of blank)/(Absorbance of Positive- Absorbance of Blank) × 100%

Data set [1] concerns Staphylococcus aureus ATCC 6538. Type of data set: cell-based. The note with it: ATCC 6538, 18 h. The procedure: (§1) The minimal inhibitory concentration (MIC) and minimal bactericidal concentration (MBC) values of the peptides were determined by established protocols to evaluate their antimicrobial activities ([Lin et al., 2021]). The MIC value was the lowest concentration of a peptide that inhibits visible bacterial growth after incubating 18 h (CLSI standard). Once the MIC values were determined, an aliquot from the bacterial culture exposed to the peptide at or above its MIC value was inoculated on a Mueller Hinton agar (MHA) and was incubated at 37 for 18 h (CLSI standard). The MBC value was the lowest concentration of a peptide that kills 99.9% of bacteria. Antimicrobial activities of synthetic peptides were assessed by determination of MIC and MBC values using eight kinds of bacteria and yeast: Gram-positive bacteria, Staphylococcus aureus ATCC 6538 (S. aureus 6538), Methicillin-resistant Staphylococcus aureus NCTC 12493 (MRSA 12493), and Enterococcus faecalis NCTC 12697 (E. faecium 12697); Gram-negative bacteria, Escherichia coli ATCC 8739 (E. coli 8739), Pseudomonas aeruginosa ATCC CRM 9027 (P. aeruginosa 9027), Klebsiella pneumoniae ATCC 43816 (K. pneumoniae 43816), and Acinetobacter baumannii BAA 747 (A. baumannii 747); and pathogenic yeast, Candida albicans ATCC 10231 (C. albicans 10231).

Data set [2] relates to Acinetobacter baumannii BAA 747. It counts as cell-based. The note with it: BAA 747, 18 h. Here is the method:
as §1

In data set [3] the test system is Escherichia coli ATCC 8739. Type of data set: cell-based. The note with it: ATCC 8739, 18 h. The procedure: as §1
In data set [4] the test system is Candida albicans ATCC 10231. Type of data set: cell-based. The note with it: ATCC 10231, 18 h. Here is the method:
as §1

In data set [5] the test system is Pseudomonas aeruginosa ATCC CRM 9027. Type of data set: cell-based. The note with it: ATCC CRM 9027, 18 h. The procedure: as §1
Data set [6] deals with Klebsiella pneumoniae ATCC 43816. It counts as cell-based. The note with it: ATCC 43816, 18 h. The procedure:
as §1

Data set [7] relates to Methicillin-resistant Staphylococcus aureus NCTC 12493. It counts as cell-based. The note with it: NCTC 12493, 18 h. Here is the method: as §1
The test system of another data set is E. faecium 12697. Type of data set: cell-based, Enterococcus faecalis NCTC 12697 (E. faecium 12697). The note with it: 12697, 18 h. Here is the method: as §1

`CC[C@H](C)[C@H](NC(=O)[C@H](Cc1c[nH]cn1)NC(=O)[C@H](Cc1c[nH]cn1)NC(=O)[C@H](CC(C)C)NC(=O)[C@@H](NC(=O)[C@H](Cc1c[nH]cn1)NC(=O)[C@H](C)NC(=O)[C@H](C)NC(=O)[C@@H](NC(=O)CNC(=O)[C@H](C)NC(=O)[C@@H](NC(=O)[C@@H](NC(=O)[C@@H]1CCCN1C(=O)[C@H](Cc1ccccc1)NC(=O)[C@@H](N)Cc1ccccc1)[C@@H](C)CC)C(C)C)C(C)C)C(C)C)C(=O)N[C@@H](Cc1ccccc1)C(=O)N[C@H]1CSSC[C@@H](C(=O)O)NC(=O)[C@H](CCCCN)NC(=O)[C@H](CCCCN)NC(=O)[C@H](CO)NC(=O)[C@H]([C@@H](C)CC)NC(=O)[C@H]([C@@H](C)O)NC1=O` [brevinin-1pl-3H] (H-FFPIVAGVAAHVLHHIFCTISKKC-OH; disulfide 18-24): in the data set on HaCaT cells, the “Cytotoxicity toward normal HaCaT cells (in words)” value was “low cytotoxicity”. Further, the “Hemolytic activity at 16 μM (in words)” value with horse erythrocytes is given as “low hemolytic activity”. Besides, the MBC in data set [1] is 8 µM (≈ 21.1 µg/mL); in [2], greater than 128 µM; in data set [3], 32 µM (≈ 84.4 µg/mL); in data set [4], greater than 128 µM; in data set [5], 64 µM (≈ 169 µg/mL); in data set [6], 64 µM (≈ 169 µg/mL). The figures for the MBC (in [7]; against E. faecium 12697) were 4/4 µM and 32 µM (≈ 84.4 µg/mL), respectively. Further, the MIC in data set [1] is 8 µM (≈ 21.1 µg/mL); in [2], greater than 128 µM; in data set [3] it was 32 µM (≈ 84.4 µg/mL); in [4], 64 µM (≈ 169 µg/mL); in data set [5] it was 64 µM (≈ 169 µg/mL); in data set [6], 32 µM (≈ 84.4 µg/mL). Besides, in the data set with E. faecium 12697, the MIC worked out at 16 µM (≈ 42.2 µg/mL).
Take `CC[C@H](C)[C@H](NC(=O)[C@H](CCCCN)NC(=O)[C@H](CCCCN)NC(=O)[C@H](CC(C)C)NC(=O)[C@@H](NC(=O)[C@H](CCCCN)NC(=O)[C@H](C)NC(=O)[C@H](C)NC(=O)[C@@H](NC(=O)CNC(=O)[C@H](C)NC(=O)[C@@H](NC(=O)[C@H](CCCCN)NC(=O)[C@@H]1CCCN1C(=O)[C@H](Cc1ccccc1)NC(=O)[C@@H](N)Cc1ccccc1)C(C)C)C(C)C)C(C)C)C(=O)N[C@@H](Cc1ccccc1)C(=O)N[C@H]1CSSC[C@@H](C(=O)O)NC(=O)[C@H](CCCCN)NC(=O)[C@H](CCCCN)NC(=O)[C@H](CO)NC(=O)[C@H]([C@@H](C)CC)NC(=O)[C@H]([C@@H](C)O)NC1=O` [brevinin-1pl-6K] (H-FFPKVAGVAAKVLKKIFCTISKKC-OH; disulfide 18-24): the MBC was 4 µM (≈ 10.5 µg/mL) in [1]; 16 µM (≈ 42 µg/mL) in data set [2]; 4 µM (≈ 10.5 µg/mL) in [3]; greater than 128 µM in [4]; 8 µM (≈ 21 µg/mL) in data set [5]; 8 µM (≈ 21 µg/mL) in data set [6]. The MBC stood at 4 µM (≈ 10.5 µg/mL) in data set [7] and 16 µM (≈ 42 µg/mL) against E. faecium 12697. Also, the MIC was 4 µM (≈ 10.5 µg/mL) in [1]; 16 µM (≈ 42 µg/mL) in data set [2]; 4 µM (≈ 10.5 µg/mL) in data set [3]; greater than 128 µM in [4]; 8 µM (≈ 21 µg/mL) in [5]; 8 µM (≈ 21 µg/mL) in data set [6]. Moreover, the MIC was 4 µM (≈ 10.5 µg/mL) in data set [7] and 16 µM (≈ 42 µg/mL) against E. faecium 12697.
Turning to `CC[C@H](C)[C@H](NC(=O)[C@H](CCCCN)NC(=O)[C@H](CCCCN)NC(=O)[C@H](CC(C)C)NC(=O)[C@@H](NC(=O)[C@H](CCCCN)NC(=O)[C@H](C)NC(=O)[C@H](C)NC(=O)[C@@H](NC(=O)CNC(=O)[C@H](C)NC(=O)[C@@H](NC(=O)[C@@H](NC(=O)[C@@H]1CCCN1C(=O)[C@H](Cc1ccccc1)NC(=O)[C@@H](N)Cc1ccccc1)[C@@H](C)CC)C(C)C)C(C)C)C(C)C)C(=O)N[C@@H](Cc1ccccc1)C(=O)N[C@H]1CSSC[C@@H](C(=O)O)NC(=O)[C@H](CCCCN)NC(=O)[C@H](CCCCN)NC(=O)[C@H](CO)NC(=O)[C@H]([C@@H](C)CC)NC(=O)[C@H]([C@@H](C)O)NC1=O` [brevinin-1pl] (H-FFPIVAGVAAKVLKKIFCTISKKC-OH; disulfide 18-24), the MBC is 2 µM (≈ 5.22 µg/mL) in [1]; 16 µM (≈ 41.8 µg/mL) in data set [2]; 4 µM (≈ 10.4 µg/mL) in [3]; greater than 128 µM in data set [4]; 16 µM (≈ 41.8 µg/mL) in data set [5]; 8 µM (≈ 20.9 µg/mL) in [6]. In addition, the figures for the MBC (in [7]; with E. faecium 12697) were 2 µM (≈ 5.22 µg/mL) and 4 µM (≈ 10.4 µg/mL), respectively. In addition, the MIC in data set [1] was 2 µM (≈ 5.22 µg/mL); in [2] it was 8 µM (≈ 20.9 µg/mL); in [3], 4 µM (≈ 10.4 µg/mL); in [4], greater than 128 µM; in data set [5] it was 8 µM (≈ 20.9 µg/mL); in [6], 8 µM (≈ 20.9 µg/mL). For the same compound, the MIC was found to be 2 µM (≈ 5.22 µg/mL) in data set [7] and 4 µM (≈ 10.4 µg/mL) with E. faecium 12697.

The MIC is the lowest concentration found to suppress growth. A high value points to weaker potency.
